Among the data in PubChem BioAssay AID588653 (The Scripps Research Institute Molecular Screening Center, 2011) are inhibition values, retold here.

Chain of Epidermal growth factor receptor (Homo sapiens) (P00533 whole entry, looked up): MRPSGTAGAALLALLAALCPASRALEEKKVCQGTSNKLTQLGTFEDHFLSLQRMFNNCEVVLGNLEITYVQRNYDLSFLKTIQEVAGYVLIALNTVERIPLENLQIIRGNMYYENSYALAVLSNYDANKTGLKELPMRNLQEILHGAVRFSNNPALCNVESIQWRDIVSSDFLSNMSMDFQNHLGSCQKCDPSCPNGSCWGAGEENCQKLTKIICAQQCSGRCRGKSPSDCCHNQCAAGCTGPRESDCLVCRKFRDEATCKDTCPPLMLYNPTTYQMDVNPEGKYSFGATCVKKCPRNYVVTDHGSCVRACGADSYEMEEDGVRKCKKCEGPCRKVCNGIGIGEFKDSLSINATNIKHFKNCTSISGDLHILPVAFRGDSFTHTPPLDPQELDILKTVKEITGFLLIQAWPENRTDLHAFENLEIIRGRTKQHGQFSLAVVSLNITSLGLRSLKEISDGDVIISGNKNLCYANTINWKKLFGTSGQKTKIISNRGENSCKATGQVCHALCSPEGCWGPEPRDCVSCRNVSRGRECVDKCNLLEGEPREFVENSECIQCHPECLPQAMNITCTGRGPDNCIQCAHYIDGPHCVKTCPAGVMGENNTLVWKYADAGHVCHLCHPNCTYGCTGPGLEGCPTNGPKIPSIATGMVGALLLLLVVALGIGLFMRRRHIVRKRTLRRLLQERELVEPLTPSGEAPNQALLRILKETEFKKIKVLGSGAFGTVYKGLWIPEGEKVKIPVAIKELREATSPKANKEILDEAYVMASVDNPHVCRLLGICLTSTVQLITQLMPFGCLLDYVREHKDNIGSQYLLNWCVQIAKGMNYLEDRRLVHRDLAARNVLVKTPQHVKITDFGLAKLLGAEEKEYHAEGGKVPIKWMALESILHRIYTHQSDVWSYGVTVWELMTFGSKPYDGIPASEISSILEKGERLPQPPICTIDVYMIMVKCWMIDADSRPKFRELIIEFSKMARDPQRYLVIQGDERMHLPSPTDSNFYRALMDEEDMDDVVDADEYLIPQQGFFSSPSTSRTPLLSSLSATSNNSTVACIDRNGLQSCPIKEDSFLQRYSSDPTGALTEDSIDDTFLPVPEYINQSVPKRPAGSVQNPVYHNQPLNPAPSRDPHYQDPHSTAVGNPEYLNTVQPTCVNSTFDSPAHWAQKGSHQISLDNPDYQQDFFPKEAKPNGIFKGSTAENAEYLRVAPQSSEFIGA

This experiment concerns the target Epidermal growth factor receptor (Homo sapiens) (UniProt P00533). The experiment is described as follows: p-EGFR level shift in colorectal carcinoma cells – HT29 cells, chemiluminescent western blot, powder samples, counter-screen for KLF5 inhibitor project, late-stage follow-up (AID 588653). As to conditions: 24 h, at 10 µM.
For `CN(C(=O)COC(=O)/C=C/c1cccc([N+](=O)[O-])c1)C1CCS(=O)(=O)C1` (stereo not drawn), the inhibition was -47.5%. `CN(C(=O)CNC(=O)/C=C/c1cccc(Cl)c1)C1CCS(=O)(=O)CC1`: the inhibition was -116%. Next, `CN(C(=O)CNC(=O)/C=C/c1cccc(Cl)c1)C1CCS(=O)(=O)C1` (stereo not drawn): -130%.
